Key:
chlorophyllitic plants [1] = conditions: as little as; cited from earlier work
chlorophyllitic plants [2] = test: Photosynthetic disruption by glyphosate; assay type: in vivo
Experimental: Extensive research has documented that plants are often sensitive to relatively minute concentrations or exposures to unique synthetic compounds or combinations of naturally occurring elements, including micro-nutrients. For example, glyphosate (aka ROUNDUP®, a synthetic Monsanto product) is effective at causing photosynthetic disruption in chlorophyllitic plants at an application rate of as little as 0.75 pounds active ingredient per acre, which equates to only approximately 8 mg/square foot of application, equivalent to approximately 14 ppm application rate. The American Phytopathological Society (APS) reported that micronutrients are generally toxic when present in high amounts, although ‘high concentrations’ are not clearly defined, and little toxicity have been reported at exceptionally low micro-nutrient concentrations. This occurrence is known as micro-nutrient toxicity syndrome (MTS). […] In addition, plants can vary considerably from species to species in their susceptibility to nutrient toxicities. For example, Lee and others (1996) reported inducing seed geranium (Pelargonium x hortorum) micronutrient toxicity symptoms by applying nutrient solutions containing 0.5 mg/L B, Cu, or Zn, or as little as 0.25 mg/L Mo, in combination with nitrogen, phosphorus, and potassium. […]

humans = conditions: U.S. EPA, 2005 carcinogen assessment guidelines; cited from earlier work
French marigold = conditions: in vivo; cited from earlier work
spotted knapweed = test: Plant community response at Anaconda Smelter Superfund site; assay type: in vivo; conditions: gradient of water soluble copper and zinc in soil
[3] = system: seed geranium (Pelargonium x hortorum); conditions: in combination with nitrogen, phosphorus, and potassium; cited from earlier work
dandelions = test: Plant community response at Anaconda Smelter Superfund site; assay type: in vivo; conditions: where moderate to high levels of water soluble copper and zinc are measured in the soil
invasive plant species = test: Hypothetical dose-response testing of invasive species on a rangeland site (Example 21); assay type: in vivo; conditions: for biomass reduction: zinc-sensitive invasive species
Experimental: In this example, a rangeland site has become colonized by three invasive species. From dose-response testing it can be determined that 2 of the invasive species can be controlled by boron fertilization while the third is tolerant of boron, but not zinc. Of the two boron-sensitive invasive plant species, one is intolerant to a soil solution level of 3 mg boron per liter, while the other is sensitive to 7 milligrams per liter.

[4] = system: cheatgrass (Bromus tectorum); test: Cheatgrass-affected rangeland site two-year study, surface liquid boron applications (Example 5); assay type: in vivo; conditions: treated rangeland site
Text: At a cheatgrass-affected rangeland site plant cover over a two-year study period is shown in response to water soluble soil boron concentrations resulting from surface liquid boron applications. Perennial grass cover in the treated rangeland site was increased to between 60 and 70 percent cover while cheatgrass cover decreased and was less than 3% (FIG. 5A) while adjacent untreated rangeland had less perennial grass cover and more cheatgrass after 2 years. (Soil sampling of the 0-6 inch depth was performed annually over a five year period to determine the water soluble boron concentrations both in the treated and untreated areas (FIG. 5B). Transects were used to measure plant cover annually at sites co-located with soil sampling.

cheatgrass seed [5] = test: Greenhouse petri dish cheatgrass seed germination experiment; assay type: in vivo, Bromus tectorum
Experimental: Greenhouse petri dish experiments were completed to evaluate the effect of minute concentrations of boron on cheatgrass seed germination. Treatment concentrations (in addition to a zero treatment control) ranged from 10 to 50 mg B/L dissolved in distilled water. […] A follow-up experiment, essentially repeating the previously described petri dish experiment, with inclusion of a treatment rate as low as 5 mg/L, was completed. It was observed that cheatgrass seeds germinated at the 5 mg/L concentration, with death of the seedlings occurring within 7 days of germination (data not shown).

[6] = system: bluebunch wheatgrass (Pseudoroegenaria spicata); test: Greenhouse pot study watered with boron solutions; conditions: watered 3 times in final 2 weeks
Experimental: (§5) In a greenhouse pot study Kentucky bluegrass, bluebunch wheatgrass, cheatgrass, dandelion and spotted knapweed were grown from seed in potting soil for a period of approximately 26 weeks. Plants were watered with tap water for the first 24 weeks and then 3 times with boron solutions during the final 2 weeks of the study. Boron concentrations used were 5, 10, 25 and 50 mg B/L in addition to a tap water treatment and a commercial plant fertilizer solution.

[7] = system: bluebunch wheatgrass (Pseudoroegenaria spicata); conditions: in vivo
Experimental: as §5

[8] = system: cheatgrass (Bromus tectorum); test: Field trial of boron fertilization in existing perennial grass communities near Belgrade, Mont.; assay type: in vivo
Experimental: (§1) Field trials were established in existing perennial grass communities near Belgrade, Mont., with high levels of cheatgrass and dandelion invasion into existing perennial grasses to examine use of boron (elemental symbol: B) fertilization for weed control. Minute amounts of boron, in doses as low as 5 mg B/L (soluble) or 2-3 lbs B (dry) active ingredient per acre, were applied to the plots.
(§2) Over the same period of time dandelion cover decreased from a mean of 59% to 15%, and cheatgrass cover decreased from a mean of 47% to 1%, while perennial grass cover increased from 42% to 71%.
(§3) Formulation D, Using the boron-containing compound Na2B4O7.10 H20, the 0.5 mg/L soil concentration applied in the field experiment described in Example 1 was attained by adding 2.55 grams per 100 square foot. The 50 mg/L soil concentration was attained by adding 255 grams per 100 square feet. These concentrations were applied either dry or by dissolving the boron-containing compound in water and then applied as a liquid to field plots.

[9] = system: perennial grass (several species); test: as above; assay type: in vivo; conditions: over 5 year period after a single application of boron fertilizer; increased from 42%
Experimental: as §1, §2, §3

[10] = system: dandelion (Taraxacum officinale); test: as above; assay type: in vivo; conditions: over 5 year period after a single application of boron fertilizer; decreased from a mean of 59%
Experimental: as §1, §2, §3

[11] = system: cheatgrass, dandelion, spotted knapweed and Kentucky bluegrass seed; test: Benchtop seed germination in covered petri dishes with boron solutions (Example 8); assay type: in vivo; conditions: boron concentrations reached 25 mg/L; ten days after treatment
Experimental: Germination percentage of cheatgrass, dandelion, spotted knapweed and Kentucky bluegrass seed was measured ten (10) days after treatment with solutions of increasing boron concentration (FIG. 8).

perennial grass = test: Rangeland site five-year study, surface liquid boron applications (Example 4); assay type: in vivo; conditions: treated area
[12] = system: Kentucky bluegrass (Poa pratensis); test: Greenhouse pot study watered with boron solutions; assay type: in vivo; conditions: increasing boron concentrations
Text: (§4) Greenhouse pot irrigation study, Bozeman, Mont. (FIG. 6).

[13] = system: cheatgrass (Bromus tectorum); test: Greenhouse pot study watered with boron solutions; assay type: in vivo; conditions: increasing boron concentrations
Text: as §4

[14] = system: dandelion (Taraxacum officinale); test: Greenhouse pot study watered with boron solutions; assay type: in vivo
Text: as §4

[15] = system: spotted knapweed (Centaurea maculosa); test: Greenhouse pot study watered with boron solutions; assay type: in vivo
Text: as §4

cheatgrass seed [16] = test: Benchtop seed germination in covered petri dishes with boron solutions (Example 8); assay type: in vivo, Bromus tectorum; conditions: boron 5 to 50 mg/L; 20 seeds; ten days after treatment
Experimental: Germination percentage of cheatgrass, dandelion, spotted knapweed and Kentucky bluegrass seed was measured ten (10) days after treatment with solutions of increasing boron concentration (FIG. 8). Cheatgrass appeared most sensitive to boron solution resulting in essentially 100% death of 20 cheatgrass seeds in covered petri dishes, when treated with solutions with boron concentration ranging from 5 to 50 mg/L. Control treatment using tap water successful germination percentage exceeded 56%.

native perennial grasses = conditions: in vivo
Text: (§6) The prevalence of various invasive species including cheatgrass, dandelions, and perennial noxious weeds (forbs) was observed and correlated with soil copper contamination levels measured at various sites.

[17] = system: invasive species including cheatgrass, dandelions, and perennial noxious weeds; test: Plant community survey in area contaminated with copper from a copper smelter (Example 22); assay type: in vivo; conditions: soil copper contamination levels measured at various sites
Text: as §6

[18] = increasing boron concentrations
[19] = lowest boron solution concentration used, 5 mg B/L, watered 3 times in final 2 weeks

In the case of O=C(O)CNCP(=O)(O)O [glyphosate], the “application rate effective at causing photosynthetic disruption” value (chlorophyllitic plants [1]) is given as 0.75 pounds active ingredient per acre, the “effective application rate, equivalent per area” value (chlorophyllitic plants [2]; equates to 0.75 pounds active ingredient per acre) is given as “approximately 8 mg/square foot” and the “effective application rate, equivalent” value (chlorophyllitic plants [2]; equivalent to 0.75 pounds active ingredient per acre) is given as “approximately 14 ppm”.
In the case of borate salts, the carcinogenicity classification (humans) is given as “not likely to be carcinogenic to humans”.
In the case of [Mo] [molybdenum], the “concentration inducing micro-nutrient toxicity” value (French marigold) is listed as 5000 ng/mL.
In the case of [Zn] [zinc], the “occurrence of spotted knapweed” value (spotted knapweed) is listed as “found growing in soils with low to high levels”, the “nutrient solution concentration inducing micronutrient toxicity symptoms” value [3] is listed as 0.5 mg/L and the occurrence of dandelions (dandelions) is listed as “not found”. For the same molecule, the biomass reduction (invasive plant species; 0.4 mg zinc per liter) was 38% and the biomass reduction (invasive plant species; 0.9 milligrams per liter) was 89%.
In the case of boron, the cheatgrass cover [4] is reported as “less than 3%”, the “cheatgrass seed germination (observation)” value (cheatgrass seed [5]; 5 mg/L, follow-up experiment) is reported as “germinated” and the “death of seedlings, time after germination” value (cheatgrass seed [5]; 5 mg/L, follow-up experiment) is reported as no more than 7 days. For the same molecule, the cheatgrass seed germination (cheatgrass seed [5]; 10 to 50 mg B/L in distilled water, after 14 days) was “zero”, the cheatgrass seed germination (cheatgrass seed [5]; boron solution 10 mg/L, 14 days post treatment (FIG. 2B)) was 0% and the tolerated boron concentration [6] was no less than 50 mg B/L. For the same molecule, the “plant health index (color and vigor) response” value (“plant health index” for short) [7] was “little change in plant health”, the “concentration inducing micro-nutrient toxicity” value (French marigold) was 500 ng/mL and the “emerging or mature cheatgrass plants in plots” value ([8]; following growing seasons, doses as low as 5 mg B/L or 2-3 lbs B per acre) was “near-total absence”. It also gave a mean cheatgrass cover ([8]; over 5 year period after a single application of boron fertilizer, decreased from a mean of 47%) of 1%, a perennial grass cover [9] of 71% and a mean dandelion cover [10] of 15%. For the same molecule, the “germination of any species” value [11] was “Very little germination”, the perennial grass densities (perennial grass) was “increase over time” and the “soil solution level to which invasive species is intolerant” value (invasive plant species; first boron-sensitive invasive species) was 3 mg boron per liter. The “soil solution level to which invasive species is sensitive” value (invasive plant species; second boron-sensitive invasive species) was 7 milligrams per liter, the “plant health index” value [12] was “declined in vigor” and the “plant health index” value [13] was “declined in vigor”. The “plant health index” value [14, 18] was “declined in vigor”, the phytotoxic response [14, 19] was “marked phytotoxicity” and the “plant health index” value [15, 18] was “declined in vigor”. For the same molecule, the “rate of decline in plant health compared with other species” value ([15]; increasing solution boron concentration) was “most rapid decline in plant health”, the phytotoxic response [15, 19] was “marked phytotoxicity” and the “death of cheatgrass seeds” value (cheatgrass seed [16]) was roughly 100%.
For [Mn+2] [manganese], the “concentration inducing micro-nutrient toxicity” value (French marigold) is given as 1000 ng/mL.
In the case of [Cu] [copper], the “occurrence of spotted knapweed” value (spotted knapweed) is listed as “found growing in soils with low to high levels”, the occurrence of dandelions (dandelions) is listed as “not found” and the “concentration inducing micro-nutrient toxicity” value (French marigold) is listed as 4000 ng/mL. For the same molecule, the “tolerance of native perennial grasses to soil copper” value (native perennial grasses) was “tolerate higher copper soil levels” and the “occurrence of invasive species versus soil copper” value [17] was “primarily observed at lower copper contamination sites”.

Source: US11357232B2, “Methods of improving soil health, growth and vigor of perennial grass communities” (Edaphix, LLC, priority 2013, dated 2022)
